Assays:
Type in all cases: ADME, organism-based
[1] = Prodrug conversion in C57Bl/6 mouse brain assessed as increase in sobetirome level at 1.5 micromol/kg, ip after 30 mins by LC-MS/MS analysis relative to sobetirome control; conditions: in vivo, 0.5 h, dose 1.5 µmol/kg
[2] = Ratio of AUC (0 to t) in brain to serum in C57Bl/6 mouse assessed as sobetirome level at 1.5 microM/Kg, ip upto 8 hrs by LC-MS/MS analysis
[3] = AUC (0 to t) in C57Bl/6 mouse brain assessed as sobetirome level at 1.5 microM/Kg, ip upto 8 hrs by LC-MS/MS analysis; set-up: route intraperitoneal, dose 1.5 µM/Kg, time <=8; conditions: in vivo
[4] = AUC (0 to t) in C57Bl/6 mouse liver assessed as sobetirome level at 1.5 microM/Kg, ip upto 8 hrs by LC-MS/MS analysis; set-up: route intraperitoneal, dose 1.5 µM/Kg, time <=8; conditions: in vivo
[5] = Ratio of AUC in brain to serum in C57Bl/6 mouse assessed as sobetirome level at 1.5 microM/Kg, ip upto 8 hrs by LC-MS/MS analysis
[6] = Ratio of AUC in brain to liver in C57Bl/6 mouse assessed as sobetirome level at 1.5 microM/Kg, ip upto 8 hrs by LC-MS/MS analysis; conditions: in vivo
[7] = AUC (0 to t) in C57Bl/6 mouse serum assessed as sobetirome level at 1.5 microM/Kg, ip upto 8 hrs by LC-MS/MS analysis; set-up: route intraperitoneal, dose 1.5 µM/Kg, time <=8; conditions: in vivo
[8] = Ratio of AUC (0 to t) in brain to liver in C57Bl/6 mouse assessed as sobetirome level at 1.5 microM/Kg, ip upto 8 hrs by LC-MS/MS analysis; conditions: in vivo
[9] = Ratio of AUC in C57Bl/6 mouse brain to liver at 1.5 microM/Kg, ip upto 8 hrs by LC-MS/MS analysis; conditions: in vivo
[10] = AUC (0 to t) in C57Bl/6 mouse serum at 1.5 microM/Kg, ip upto 8 hrs by LC-MS/MS analysis; set-up: route intraperitoneal, dose 1.5 µM/Kg, time <=8; conditions: in vivo
[11] = AUC (0 to t) in C57Bl/6 mouse brain at 1.5 microM/Kg, ip upto 8 hrs by LC-MS/MS analysis; set-up: route intraperitoneal, dose 1.5 µM/Kg, time <=8; conditions: in vivo
[12] = Ratio of AUC in C57Bl/6 mouse brain to serum at 1.5 microM/Kg, ip upto 8 hrs by LC-MS/MS analysis; conditions: read-out: Ratio AUC
[13] = AUC (0 to t) in C57Bl/6 mouse liver at 1.5 microM/Kg, ip upto 8 hrs by LC-MS/MS analysis; set-up: route intraperitoneal, dose 1.5 µM/Kg, time <=8; conditions: in vivo
[14] = Half life in iv dosed mouse; conditions: in vivo

| Drug metabolism [1] | Compound | further results |
| --- | --- | --- |
| Metabolite_Notdetected | Cc1cc(OCC(=O)OCCN2CCOCC2)cc(C)c1Cc1ccc(O)c(C(C)C)c1 |  |
|  | Cc1cc(OCC(=O)OCCN)cc(C)c1Cc1ccc(O)c(C(C)C)c1.Cl | Ratio AUC [2]: 0.05; AUC [3]: 17.1 ng·h/g; fold change (FC) [1]: 2; AUC [4]: 1897 ng·h/g; fold change (FC) [5]: 7; fold change (FC) [6]: 4; AUC [7]: 367.8 ng·h/g; Ratio AUC [8]: 0.009 |
| Metabolite_Notdetected | Cc1cc(OCC(=O)OCCN(C)C)cc(C)c1Cc1ccc(O)c(C(C)C)c1 |  |
| Metabolite_Notdetected | Cc1cc(OCC(=O)OC2CCNCC2)cc(C)c1Cc1ccc(O)c(C(C)C)c1 |  |
| Metabolite_Notdetected | Cc1cc(OCC(=O)OC2CCCNC2)cc(C)c1Cc1ccc(O)c(C(C)C)c1 (stereo not given) |  |
| Metabolite_Notdetected | Cc1cc(OCC(=O)Oc2ccc(C[C@H](N)C(=O)O)cc2)cc(C)c1Cc1ccc(O)c(C(C)C)c1.Cl |  |
| Metabolite_Notdetected | Cc1cc(OCC(=O)OC[C@H]2CCCN2)cc(C)c1Cc1ccc(O)c(C(C)C)c1 |  |
| Metabolite_Notdetected | Cc1cc(OCC(=O)OC[C@H]2O[C@@H](O)[C@H](O)[C@@H](O)[C@@H]2O)cc(C)c1Cc1ccc(O)c(C(C)C)c1 |  |
| Metabolite_Notdetected | Cc1cc(OCC(=O)OC2CNC2)cc(C)c1Cc1ccc(O)c(C(C)C)c1 |  |
| Metabolite_Notdetected | Cc1cc(OCC(=O)OCCNC(=O)[C@@H](N)CCCCN)cc(C)c1Cc1ccc(O)c(C(C)C)c1.Cl.Cl |  |
| Metabolite_Notdetected | CCOC(=O)COc1cc(C)c(Cc2ccc(O)c(C(C)C)c2)c(C)c1 |  |
| Metabolite_Notdetected | Cc1cc(OCC(=O)OCC2CCCCN2)cc(C)c1Cc1ccc(O)c(C(C)C)c1 (stereo not given) |  |
| Metabolite_Notdetected | Cc1cc(OCC(=O)OCC[N+](C)(C)C)cc(C)c1Cc1ccc(O)c(C(C)C)c1.[Br-] |  |
| Metabolite_Notdetected | Cc1cc(OCC(=O)OC2(C)CNC2)cc(C)c1Cc1ccc(O)c(C(C)C)c1 |  |
| Metabolite_Notdetected | Cc1cc(OCC(=O)OCCNC(=O)[C@@H](N)C(C)C)cc(C)c1Cc1ccc(O)c(C(C)C)c1.Cl |  |
| Metabolite_Notdetected | Cc1cc(OCC(=O)OC2CN(C)C2)cc(C)c1Cc1ccc(O)c(C(C)C)c1 |  |
| Metabolite_Notdetected | Cc1cc(OCC(=O)O)cc(C)c1Cc1ccc(O)c(C(C)C)c1 [SOBETIROME] | Ratio AUC [9]: 0.004; AUC [10]: 681.7 ng·h/g; AUC [11]: 10.8 ng·h/g; Kp at 8 h [12]: 0.02; AUC [13]: 2933 ng·h/g; half-life [14]: 1.3 h |

— ChEMBL document CHEMBL4715778, “Sobetirome prodrug esters with enhanced blood-brain barrier permeability” (Bioorg Med Chem, 2016)
